Calls of active or inactive are those of the source.
Experiments:
[1] = biological target: Ras and Rab interactor 1/Tyrosine-protein kinase ABL1 (Homo sapiens, UniProt P00519+Q13671); format: functional;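 note: biochemical TR-FRET dose-response test measuring inhibition of binding between Rin1 and Abl proteins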
[2] = biological target: Luciferin 4-monooxygenase (Photinus pyralis, UniProt P08659); test: inhibition of purified Photinus pyralis luciferase – biochemical, luminescence, dose response (AID 1891)
[3] = Luminescence Cell-Based Dose Confirmation HTS to Identify Inhibitors of Platelet Dense Granule Release. [Related pubchem assays: 1663 (Primary HTS), 1678 (Summary of Project)]; format: functional
CHO-K1 = test: (§1) Counterscreen for antagonists of the orexin 1 receptor (OX1R; HCRTR1): Homogeneous time resolved fluorescence (HTRF)-based cell-based dose response assay to identify antagonists of the parental CHO-K1 cell line. [Related pubchem assays (depositor defined):AID434989, AID435008, AID463079, AID485270, AID492963, AID492964, AID492965, AID493232, AID504699, AID504701]; format: functional; settings: Cricetulus griseus
[4] = as §1, with “Fluorescence-based” for “Homogeneous time resolved fluorescence (HTRF)-based”, “cell-based high throughput” for “cell-based”, “CHO” for “CHO-K1”; format: functional
[5] = biological target: T1, Orexin/Hypocretin receptor type 1 (Homo sapiens, UniProt O43613); test: Homogeneous Time Resolved Fluorescence (HTRF)-based cell-based high throughput dose response assay for antagonists of the orexin 1 receptor (OX1R; HCRTR1). [Related pubchem assays (depositor defined):AID434989, AID435008, AID463079, AID485270, AID492963, AID492964, AID492965, AID493232, AID504717, AID504718]; format: functional
T1 sequence (O43613 whole entry): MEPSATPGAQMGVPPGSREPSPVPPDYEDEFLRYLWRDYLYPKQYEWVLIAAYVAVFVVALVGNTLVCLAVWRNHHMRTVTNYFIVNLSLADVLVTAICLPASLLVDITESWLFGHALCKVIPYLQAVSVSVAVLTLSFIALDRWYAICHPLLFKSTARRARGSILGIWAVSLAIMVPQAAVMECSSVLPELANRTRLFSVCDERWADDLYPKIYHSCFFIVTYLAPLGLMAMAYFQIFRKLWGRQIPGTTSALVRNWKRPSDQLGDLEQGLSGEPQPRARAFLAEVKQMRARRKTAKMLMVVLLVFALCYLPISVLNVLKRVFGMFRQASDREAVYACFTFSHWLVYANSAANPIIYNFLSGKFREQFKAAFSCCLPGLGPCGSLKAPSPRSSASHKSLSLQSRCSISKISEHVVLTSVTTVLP

[6] = biological target: T1, Orexin/Hypocretin receptor type 1; test: Fluorescence-based cell-based high throughput dose response assay for antagonists of the orexin 1 receptor (OX1R; HCRTR1). [Related pubchem assays (depositor defined):AID434989, AID435008, AID463079, AID485270, AID492963, AID492964, AID492965, AID493232, AID504717, AID504718]; format: functional
Orexin receptor type 2 [7] = biological target: T2, Orexin receptor type 2 (Homo sapiens, UniProt O43614); test: Counterscreen assay for antagonists of the orexin 1 receptor (OX1R; HCRTR1): Fluorescence-based cell-based dose response assay for antagonists of the orexin 2 receptor (OX2R; HCRTR2), run by assay provider.; format: functional
T2 sequence (O43614 whole entry): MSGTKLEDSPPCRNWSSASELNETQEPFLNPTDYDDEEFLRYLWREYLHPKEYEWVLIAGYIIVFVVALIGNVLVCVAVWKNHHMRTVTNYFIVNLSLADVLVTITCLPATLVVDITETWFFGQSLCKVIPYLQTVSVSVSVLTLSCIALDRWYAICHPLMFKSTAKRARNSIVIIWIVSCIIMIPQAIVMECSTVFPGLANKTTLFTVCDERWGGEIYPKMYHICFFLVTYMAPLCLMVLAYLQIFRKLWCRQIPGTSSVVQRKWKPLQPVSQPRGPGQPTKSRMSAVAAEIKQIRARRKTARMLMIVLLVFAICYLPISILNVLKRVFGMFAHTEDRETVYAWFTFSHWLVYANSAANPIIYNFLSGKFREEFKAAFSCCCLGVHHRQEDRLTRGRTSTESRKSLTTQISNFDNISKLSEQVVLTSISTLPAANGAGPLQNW

Orexin receptor type 2 [8] = biological target: T2, Orexin receptor type 2; test: Counterscreen assay for antagonists of the orexin 1 receptor (OX1R; HCRTR1): Homogeneous Time Resolved Fluorescence (HTRF)-based cell-based dose response assay for antagonists of the orexin 2 receptor (OX2R; HCRTR2), run by assay provider.; format: functional
Cytochrome P450 2D6 = Cytochrome P450 2D6 (Homo sapiens, UniProt P10635);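 note: CYP2D6 member of a cytochrome P450 panel assay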
Cytochrome P450 2C9 = Cytochrome P450 2C9 (Homo sapiens, UniProt P11712)
[9] = viability of uninfected HEp-2 cells – cell-based, HTS, cytotoxicity control for RSV inhibitor project, dose response (AID 2410); format: functional; settings: human respiratory syncytial virus
[10] = biological target: Eukaryotic translation initiation factor 4E (Mus musculus, UniProt P63073); test: blockers of eIF4G binding by eIF4E – biochemical, TR-FRET, dose response (AID 855); format: functional;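 note: potency for disrupting eIF4E binding to eIF4GI seen as loss of FRET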
Chain of Eukaryotic translation initiation factor 4E (P63073 whole entry): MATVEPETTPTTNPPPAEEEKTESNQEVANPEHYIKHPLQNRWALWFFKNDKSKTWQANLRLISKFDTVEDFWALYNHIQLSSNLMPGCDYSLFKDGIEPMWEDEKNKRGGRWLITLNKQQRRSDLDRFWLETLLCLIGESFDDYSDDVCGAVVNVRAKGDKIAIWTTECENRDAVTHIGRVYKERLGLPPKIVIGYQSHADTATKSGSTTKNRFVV

Chain of Ras and Rab interactor 1/Tyrosine-protein kinase ABL1 (P00519 whole entry): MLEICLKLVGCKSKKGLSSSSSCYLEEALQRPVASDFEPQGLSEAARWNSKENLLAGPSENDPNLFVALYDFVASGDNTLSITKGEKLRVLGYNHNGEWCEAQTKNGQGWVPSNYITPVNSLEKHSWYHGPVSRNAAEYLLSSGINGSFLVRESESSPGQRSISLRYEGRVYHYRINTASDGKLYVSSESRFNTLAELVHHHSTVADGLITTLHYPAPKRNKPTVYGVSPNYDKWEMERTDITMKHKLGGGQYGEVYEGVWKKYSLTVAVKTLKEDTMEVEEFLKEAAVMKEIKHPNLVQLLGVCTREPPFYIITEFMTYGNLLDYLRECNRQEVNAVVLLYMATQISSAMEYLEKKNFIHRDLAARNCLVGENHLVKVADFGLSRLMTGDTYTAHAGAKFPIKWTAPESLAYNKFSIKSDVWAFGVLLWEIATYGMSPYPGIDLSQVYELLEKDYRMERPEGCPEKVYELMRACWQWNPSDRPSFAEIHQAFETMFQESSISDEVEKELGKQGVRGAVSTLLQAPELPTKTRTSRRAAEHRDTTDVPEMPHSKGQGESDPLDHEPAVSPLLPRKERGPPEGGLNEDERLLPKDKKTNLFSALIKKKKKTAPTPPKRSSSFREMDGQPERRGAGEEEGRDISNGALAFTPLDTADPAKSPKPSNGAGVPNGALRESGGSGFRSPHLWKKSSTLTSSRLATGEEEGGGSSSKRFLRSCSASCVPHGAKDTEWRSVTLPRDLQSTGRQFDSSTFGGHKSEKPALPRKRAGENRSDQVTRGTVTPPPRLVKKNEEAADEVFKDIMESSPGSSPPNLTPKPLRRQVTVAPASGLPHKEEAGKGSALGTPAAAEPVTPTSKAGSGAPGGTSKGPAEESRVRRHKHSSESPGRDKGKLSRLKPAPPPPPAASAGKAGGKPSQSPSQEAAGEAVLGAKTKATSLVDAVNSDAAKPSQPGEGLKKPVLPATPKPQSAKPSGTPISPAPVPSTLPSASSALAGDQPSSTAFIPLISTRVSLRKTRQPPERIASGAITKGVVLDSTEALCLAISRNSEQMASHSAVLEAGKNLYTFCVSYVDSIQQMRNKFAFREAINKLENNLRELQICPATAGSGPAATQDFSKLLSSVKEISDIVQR
Chain of Ras and Rab interactor 1/Tyrosine-protein kinase ABL1 (Q13671 whole entry): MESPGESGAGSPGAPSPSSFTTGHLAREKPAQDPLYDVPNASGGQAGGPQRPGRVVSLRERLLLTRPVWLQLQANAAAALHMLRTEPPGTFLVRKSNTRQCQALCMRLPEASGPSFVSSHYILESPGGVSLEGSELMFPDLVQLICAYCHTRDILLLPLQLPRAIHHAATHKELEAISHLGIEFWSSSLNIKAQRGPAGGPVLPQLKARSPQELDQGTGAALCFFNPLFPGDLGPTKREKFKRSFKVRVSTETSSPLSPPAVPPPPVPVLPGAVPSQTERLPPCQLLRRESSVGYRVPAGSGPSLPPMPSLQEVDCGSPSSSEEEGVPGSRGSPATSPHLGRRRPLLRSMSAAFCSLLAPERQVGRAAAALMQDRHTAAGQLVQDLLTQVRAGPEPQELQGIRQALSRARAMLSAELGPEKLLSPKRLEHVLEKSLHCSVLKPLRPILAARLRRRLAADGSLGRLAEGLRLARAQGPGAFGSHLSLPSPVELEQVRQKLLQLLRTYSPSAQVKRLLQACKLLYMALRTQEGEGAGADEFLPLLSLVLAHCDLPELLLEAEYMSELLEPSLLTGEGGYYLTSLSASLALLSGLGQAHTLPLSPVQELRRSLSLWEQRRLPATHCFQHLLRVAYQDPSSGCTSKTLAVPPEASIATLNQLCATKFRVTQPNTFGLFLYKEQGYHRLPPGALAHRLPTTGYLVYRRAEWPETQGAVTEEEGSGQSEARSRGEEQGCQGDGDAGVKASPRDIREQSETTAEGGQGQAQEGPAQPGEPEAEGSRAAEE
Chain of Cytochrome P450 2C9 (P11712 whole entry): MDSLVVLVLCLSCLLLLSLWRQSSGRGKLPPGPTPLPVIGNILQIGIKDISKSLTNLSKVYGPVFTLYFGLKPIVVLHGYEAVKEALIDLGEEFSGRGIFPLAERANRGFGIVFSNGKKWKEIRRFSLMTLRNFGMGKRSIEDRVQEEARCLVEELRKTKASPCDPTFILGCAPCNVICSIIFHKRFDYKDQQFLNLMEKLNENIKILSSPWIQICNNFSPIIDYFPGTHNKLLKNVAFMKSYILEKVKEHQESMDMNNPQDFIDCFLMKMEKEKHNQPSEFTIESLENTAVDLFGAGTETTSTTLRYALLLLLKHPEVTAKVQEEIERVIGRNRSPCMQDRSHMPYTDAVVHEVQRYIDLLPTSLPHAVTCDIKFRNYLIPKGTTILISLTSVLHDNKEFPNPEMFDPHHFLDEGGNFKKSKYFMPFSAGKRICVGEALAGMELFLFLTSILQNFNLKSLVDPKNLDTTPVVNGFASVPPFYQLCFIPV
Chain of Luciferin 4-monooxygenase (P08659 whole entry): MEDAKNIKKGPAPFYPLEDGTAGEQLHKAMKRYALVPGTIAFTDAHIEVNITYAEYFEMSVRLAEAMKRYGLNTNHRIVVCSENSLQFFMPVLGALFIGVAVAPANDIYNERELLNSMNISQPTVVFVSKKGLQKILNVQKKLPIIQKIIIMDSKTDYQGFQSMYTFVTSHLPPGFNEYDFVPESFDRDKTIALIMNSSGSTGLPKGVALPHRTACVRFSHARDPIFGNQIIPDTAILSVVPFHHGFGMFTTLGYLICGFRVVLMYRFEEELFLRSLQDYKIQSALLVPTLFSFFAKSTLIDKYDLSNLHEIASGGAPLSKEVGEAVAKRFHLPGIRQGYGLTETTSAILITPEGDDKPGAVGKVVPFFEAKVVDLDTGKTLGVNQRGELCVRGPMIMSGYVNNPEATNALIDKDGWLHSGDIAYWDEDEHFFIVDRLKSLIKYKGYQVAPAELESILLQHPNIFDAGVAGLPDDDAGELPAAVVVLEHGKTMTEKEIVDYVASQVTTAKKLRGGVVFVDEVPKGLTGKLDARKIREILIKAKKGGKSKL
Chain of Cytochrome P450 2D6 (P10635 whole entry): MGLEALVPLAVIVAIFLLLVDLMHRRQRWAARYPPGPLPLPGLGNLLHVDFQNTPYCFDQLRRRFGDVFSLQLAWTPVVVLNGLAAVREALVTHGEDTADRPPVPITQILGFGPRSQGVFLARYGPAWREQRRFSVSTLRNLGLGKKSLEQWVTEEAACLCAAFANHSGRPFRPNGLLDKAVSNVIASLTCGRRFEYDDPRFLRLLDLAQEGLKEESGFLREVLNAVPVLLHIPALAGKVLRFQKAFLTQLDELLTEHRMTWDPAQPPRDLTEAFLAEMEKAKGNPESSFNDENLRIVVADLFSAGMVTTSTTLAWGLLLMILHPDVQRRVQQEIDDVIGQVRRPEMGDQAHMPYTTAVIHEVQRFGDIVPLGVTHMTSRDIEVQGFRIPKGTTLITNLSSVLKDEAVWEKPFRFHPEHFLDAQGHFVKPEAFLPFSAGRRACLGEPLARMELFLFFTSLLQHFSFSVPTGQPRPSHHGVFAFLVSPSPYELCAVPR

Row | Structure (SMILES) | IC50 [1] | EC50 [2] | EC50 [3] | IC50 (CHO-K1) | IC50 [4] | IC50 [5] | IC50 [6] | IC50 (Orexin receptor type 2 [7]) | IC50 (Orexin receptor type 2 [8]) | AC50 (Cytochrome P450 2D6) | AC50 (Cytochrome P450 2C9) | CC50 [9] | IC50 [10]
1 | CCOc1ccc(CCNC(=O)CN2C(=O)c3cccnc3Oc3ccc(C)cc32)cc1OCC | 9.82 µM (active) | – | – | – | – | – | – | – | – | – | – | – | –
2 | COc1ccc(/C=N/Nc2snc(SC)c2C#N)cc1OC | – | 46.8 µM (active) | > 112 µM (not active) | > 66.2 µM (inactive) | > 49.8 µM (inactive) | 1.93 µM (active) | 4.85 µM (active) | > 88.8 µM (inactive) | > 50 µM (inactive) | 0.282 µM (inconclusive) | 12.6 µM (inconclusive) | – | –
3 | Cc1cnc(NC(=O)c2ccc(-c3nc4ccccc4s3)o2)s1 | – | – | – | 62 µM (inactive) | > 49.8 µM (inactive) | 0.333 µM (active) | 1.97 µM (active) | > 88.8 µM (inactive) | > 50 µM (inactive) | – | – | 30.7 µM (active) | > 64 µM (inactive)

From ChEMBL document CHEMBL1201862, “PubChem BioAssay data set” (2004)
